Measured values as given in patent US5865792A, “Reduction of skin irritation during electrotransport delivery” (priority 1997, dated 1999).

Assays:
[1] = metoclopramide blood plasma concentrations during/after electrotransport delivery with and without hydrocortisone (HPLC); assay type: in vivo, human volunteers; conditions: FIG. 3; 10% MCP, 0.5% HC in anodic reservoir vs MCP alone; 100 μA/cm^2, 4 h
Description: MCP is a water soluble drug salt.

[2] = tested on: human skin
[3] = water; cited from earlier work
[4] = tested on: skin; test: skin irritation (α), electrotransport of placebo drug (sodium chloride), hydrocortisone in the cathodic reservoir (Example IV); assay type: in vivo
Description: In vivo electrically assisted delivery of a placebo drug (sodium chloride) with various liquid solvents was accomplished both with and without co-delivery of an anti-inflammatory agent (hydrocortisone) using electrotransport systems substantially similar to those described in Example II. Four different electrotransport system configurations were constructed.
The anode material used in each of the systems was silver foil and the cathode material used in each of the systems was silver chloride. The size of the gels and the applied current levels were the same as in Example II.

[5] = tested on: human skin; test: skin irritation (α), electrotransport of placebo drug (sodium chloride) in 50% propylene glycol with and without hydrocortisone (Example V); assay type: in vivo, human volunteer; conditions: FIG. 8; 0.5% (w/v) hydrocortisone in 50% propylene glycol, cathodic and anodic reservoirs; 100 μA/cm^2, 3 h
Description: In vivo electrically assisted delivery of a placebo drug (sodium chloride), with a liquid solvent in which hydrocortisone has good solubility, was accomplished both with and without co-delivery of hydrocortisone using electrotransport systems substantially similar to those described in Example II, and having anodic/cathodic reservoir gels of the following formulations: […]
An electrotransport system was constructed having anodic and cathodic reservoirs comprised of 350 μl of gel formulation I. This system was applied on the left forearm of a human volunteer. The skin contact area of each electrode gel was 2 cm^2. The anode material used in the systems was silver foil and the cathode material used in each of the systems was silver chloride. The electrodes were connected to a galvanostat preset to deliver a constant current of 100 μA/cm^2. Simultaneously another electrotransport system with similar size and current density, but whose anodic and cathodic reservoirs were comprised of 350 μl of gel formulation II was applied on the right forearm of the same volunteer. The systems were worn for 3 hours. After removal, skin irritation (α) was monitored using the Minolta Chroma Meter.

[6] = tested on: skin; conditions: prolonged exposure; cited from earlier work
[7] = tested on: skin; conditions: otherwise equivalent reservoirs; cited from earlier work

| SMILES | effect of addition of hydrocortisone on delivery of metoclopramide into the bloodstream [1] | skin irritation caused by the drug ([2]; in vivo) | solubility in words [3] | reduction of erythema of the skin in contact with the cathodic reservoir ([4]; 0.25 mg/mL hydrocortisone in water) | reddening of the skin in contact with the cathodic reservoir ([4]; FIG. 7, system 1: 5 mg/mL hydrocortisone, 40% ethanol, vs 40% ethanol without hydrocortisone) | erythema values, System 3 vs System 4 ([4]; System 3: 0.25 mg/mL hydrocortisone in water, no ethanol) | erythema compared to reservoirs containing no hydrocortisone [5] | skin irritation (α) vs. anodic reservoirs containing no hydrocortisone ([2]; FIG. 2, 0.5% HC with 10% MCP in anodic reservoir, 4 h wear, 1, 4, 24, 48 h after removal) | local side effects such as skin thinning [6] | electroosmotic flux from a cathodic reservoir vs. equivalent anodic reservoir [7] |
| --- | --- | --- | --- | --- | --- | --- | --- | --- | --- | --- |
| CCN(CC)CCNC(=O)c1cc(Cl)c(N)cc1OC [metoclopramide HCI] | does not significantly affect the delivery of metoclopramide into the bloodstream | skin irritating drug | water soluble | – | – | – | – | – | – | – |
| C[C@]12CCC(=O)C=C1CC[C@@H]1[C@@H]2C(O)C[C@@]2(C)[C@H]1CC[C@]2(O)C(=O)CO (stereo partly shown) [hydrocortisone, 11,17,21-trihydroxypregn-4-ene-3,20-dione] | – | – | – | insufficient to reduce erythema | significant reduction in the reddening of the skin | substantially the same (i.e., at most only about one α unit apart) | substantially less erythema | less skin irritation | does not result in unacceptable local side effects such as skin thinning | substantially lower |
